Measurements: patent US10266577B2, “GLP-1 derivatives, and uses thereof” (Novo Nordisk A/S, priority 2013, dated 2019)
Numbered stars: 1 amine (or outer) side, 2 acyl side, 3 side chain; on linkers, the order of the positions; unused ones are H or OH. Square brackets hold non-standard residues; d marks the D form. Side chains are listed from the residue outwards. Peptide text beside a SMILES is read from it. * marks the point of attachment. C18 diacid = O=C(O)CCCCCCCCCCCCCCCCC(=O)*; γGlu = O=C(O)[C@H](CCC(=O)[*:2])N[*:1]; εLys = N[C@@H](CCCCN[*:1])C(=O)[*:2]; AEEA = NCCOCCOCC(=O)O; Aib = CC(C)(N)C(=O)O

Tests used:
human GLP-1 receptor [1] = biological target: T1, human GLP-1 receptor (Homo sapiens, UniProt P43220); experiment: GLP-1 receptor binding: competitive binding assay (125I-GLP-1, SPA) on isolated membranes at low and high HSA; conditions: displacement of 125I-GLP-1; for IC50: high serum albumin (2.0% HSA final assay concentration)
T1 construct: expressed in transfected cells; host or cells: BHK cells (parent line BHKTS13), clone FCW467-12A; membrane preparation
Experimental: The purpose of this example is to test the receptor binding of the GLP-1 derivatives in vitro. The receptor binding is a measure of affinity of a derivative for the human GLP-1 receptor.
In this type of assay a labelled ligand (in this case ^125I-GLP-1) is bound to the receptor. Each derivative is added in a series of concentrations to isolated membranes containing the human GLP-1 receptor and displacement of the labelled ligand is monitored. The receptor binding is reported as the concentration at which half of the labelled ligand is displaced from the receptor, the IC50 value.
The following chemicals were used in the assay: Human serum albumin (HSA) (Sigma A1653), DMEM w/o phenol red (Gibco 11880-028), Pen/strep (Invitrogen 15140-122), G418 (Invitrogen 10131-027), 1 M Hepes (Gibco 15630), EDTA (Invitrogen 15575-038), PBS (Invitrogen 14190-094), fetal calf serum (Invitrogen 16140-071), EGTA, MgCl2 (Merck 1.05832.1000), Tween 20 (Amresco 0850C335), SPA particles (wheat germ agglutinin (WGA) SPA beads, Perkin Elmer RPNQ0001), [^125I]-GLP-1]-(7-36)NH2 (produced in-house), OptiPlate™-96 (Packard 6005290).
Buffer 1 consisted of 20 mM Na-HEPES plus 10 mM EDTA and pH was adjusted to 7.4. Buffer 2 consisted of 20 mM Na-HEPES plus 0.1 mM EDTA and pH was adjusted to 7.4. Assay buffer consisted of 50 mM HEPES supplemented with 5 mM EGTA, 5 mM MgCl2, 0.005% Tween 20 and pH was adjusted to 7.4. An 8% albumin stock consisted of HSA dissolved at 8% (w/v) in assay buffer. An 0.02% albumin stock consisted of HSA dissolved at 0.02% (w/v) in assay buffer.
The cells express the human GLP-1 receptor.
The cells were grown at 5% CO2 in DMEM, 10% fetal calf serum, 1% Pen/Strep (Penicillin/Streptomycin) and 1.0 mg/ml of the selection marker G418.
To make a membrane preparation the cells were grown to approximately 80% confluence. The cells were washed twice in phosphate-buffered saline and harvested. The cells were pelleted using a brief centrifugation and the cell pellet was kept on ice. The cell pellet was homogenised with ULTRA-THURRAX™ dispersing instrument for 20-30 seconds in a suitable amount of buffer 1 (e.g., 10 ml). The homogenate was centrifuged for 15 minutes. The pellet was re-suspended (homogenised) in 10 ml buffer 2 and centrifuged. This step was repeated once more. The resulting pellet was re-suspended in buffer 2 and the protein concentration was determined. The membranes were aliquoted and stored at minus 80° C.
For the receptor binding assay in the presence of low HSA (0.005%) 50 μl of the assay buffer was added to each well of an assay plate. Assay continued with step 3.
For the receptor binding assay in the presence of high HSA (2%) 50 μl of the 8% albumin stock was added to each well of an assay plate. Assay continued with step 3.
Cell membrane aliquots were thawed and diluted to their working concentration. Fifty μl were added to each well in the assay plate.
WGA SPA beads were suspended in assay buffer at 20 mg/ml. The suspension was diluted to 10 mg/ml in assay buffer just prior to addition to the assay plate. Fifty μl were added to each well in the assay plate.
The incubation was started by adding 25 μl of 480 pM solution of [^125I]-GLP-1]-(7-36)NH2 to each well of the assay plate. A 25 μl aliquot was reserved for measuring total counts/well.
The assay plate was incubated for 2 h at 30° C.
The assay plate was centrifuged for 10 min.
The assay plate was read in a Packard TopCount NXT instrument.
The data from the TopCount instrument were transferred to GraphPad Prism software. The software averaged the values for the replicates and performed a non-linear regression. IC50 values were calculated by the software and reported in nM.

in vivo = conditions: male, Göttingen, minipig, iv
Experimental: The purpose of this study is to determine the protraction in vivo of the GLP-1 derivatives after i.v. administration to minipigs, i.e. the prolongation of their time in the body and thereby their time of action. This is done in a pharmacokinetic (PK) study, where the terminal half-life of the derivative in question is determined. By terminal half-life is meant the time it takes to halve a certain plasma concentration in the terminal elimination phase.
Male Göttingen minipigs were obtained from Ellegaard Göttingen Minipigs (Dalmose, Denmark) approximately 7-14 months of age and weighing approximately 16-35 kg were used in the studies. The minipigs were housed either individually (pigs with permanent catheters) or in a group and fed restrictedly once or twice daily with SDS minipig diet (Special Diets Services, Essex, UK).
After at least 2 weeks of acclimatisation two permanent central venous catheters were implanted in vena cava caudalis or cranialis in each animal. The animals were allowed 1 week recovery after the surgery, and were then used for repeated pharmacokinetic studies with a suitable wash-out period between successive GLP-1 derivative dosings.
Blood samples (for example 0.8 ml) were collected in EDTA buffer (8 mM) and then centrifuged at 4° C. and 1942G for 10 minutes.
Plasma was pipetted into Micronic tubes on dry ice, and kept at −20° C. until analysed for plasma concentration of the respective GLP-1 compound using LOCI. Individual plasma concentration-time profiles were analyzed by a non-compartmental pharmacokinetic method in Phoenix v. 6.2 (Pharsight Inc., Mountain View, Calif., USA), or other relevant software for PK analysis, and the resulting terminal half-lives (harmonic mean) determined.

human GLP-1 receptor [2] = biological target: T1, human GLP-1 receptor; experiment: In vitro potency: CRE luciferase reporter gene assay in BHK cells expressing the human GLP-1 receptor; assay type: cell-based; conditions: whole cell reporter gene assay, BHK clone FCW467-12A/KZ10-1; averages of at least two replicates
Experimental: The purpose of this example is to test the activity, or potency, of the GLP-1 derivatives in vitro. The in vitro potency is the measure of human GLP-1 receptor activation in a whole cell assay.
In vitro potency was determined by measuring the response of the human GLP-1 receptor in a reporter gene assay. The assay was performed in a stably transfected BHK cell line that expresses the human GLP-1 receptor and contains the DNA for the cAMP response element (CRE) coupled to a promoter and the gene for firefly luciferase (CRE luciferase). When the human GLP-1 receptor is activated it results in the production of cAMP, which in turn results in the luciferase protein being expressed. When assay incubation is completed the luciferase substrate (luciferin) is added and the enzyme converts luciferin to oxyluciferin to produce bioluminescence. The luminescence is measured as the readout for the assay.
The cells were cultured at 5% CO2 in Cell Culture Medium. They were aliquoted and stored in liquid nitrogen. Before each assay an aliquot is taken up and washed twice in PBS before being suspended at the desired concentration in the assay specific buffer. For 96-well plates the suspension was made to give a final concentration of 5×10^3 cells/well.
The following chemicals were used in the assay: Pluronic F-68 (10%) (Gibco 2404), human serum albumin (HSA) (Sigma A9511), ovalbumin (Sigma A5503), DMEM w/o phenol red (Gibco 11880-028), 1 M Hepes (Gibco 15630), Glutamax 100× (Gibco 35050) and steadylite plus (PerkinElmer 6016757).
Cell Culture Medium consisted of DMEM medium with 10% FBS (Fetal Bovine Serum; Invitrogen 16140-071), 1 mg/ml G418 (Invitrogen 15140-122), 240 nM MTX (methotrexate; Sigma M9929) and 1% pen/strep (penicillin/streptomycin; Invitrogen 15140-122).
Assay Medium consisted of DMEM w/o phenol red, 10 mM Hepes and 1× Glutamax. The Assay Buffer consisted of 2% ovalbumin and 0.2% Pluronic F-68 in Assay Medium.
1) Cell stocks were thawed in a 37° C. water bath.
2) Cells were washed three times in PBS.
3) The cells were counted and adjusted to 5×10^3 cells/50 μl (1×10^5 cells/ml) in Assay Medium. A 50 μl aliquot of cells was transferred to each well in the assay plate.
4) Stocks of the test compounds and reference compounds were diluted to a concentration of 0.2 pM in Assay Buffer. […] Compounds were tested at the following final concentrations: 1×10^−7 M, 1×10^−8 M; 1×10^−9 M, 1×10^−10 M, 1×10^−11 M, 1×10^−12 M, 1×10^−13 M, and 1×10^−14 M. 6) The assay plate was incubated for 3 h in a 5% CO2 incubator at 37° C. 7) The assay plate was removed from the incubator and allowed to stand at room temperature for 15 min. 8) A 100 μl aliquot of steadylite plus reagent was added to each well of the assay plate (reagent was light sensitive). 9) Each assay plate was covered with aluminum foil to protect it from light and shaken for 30 min at room temperature. 10) Each assay plate was read in a Packard TopCount NXT instrument. Calculations and Results
The data from the TopCount instrument were transferred to GraphPad Prism software. The software performs a non-linear regression (log(agonist) vs response).
A minimum of two replicates was measured for each sample. The reported values are averages of the replicates.

T1 sequence (P43220 24-463): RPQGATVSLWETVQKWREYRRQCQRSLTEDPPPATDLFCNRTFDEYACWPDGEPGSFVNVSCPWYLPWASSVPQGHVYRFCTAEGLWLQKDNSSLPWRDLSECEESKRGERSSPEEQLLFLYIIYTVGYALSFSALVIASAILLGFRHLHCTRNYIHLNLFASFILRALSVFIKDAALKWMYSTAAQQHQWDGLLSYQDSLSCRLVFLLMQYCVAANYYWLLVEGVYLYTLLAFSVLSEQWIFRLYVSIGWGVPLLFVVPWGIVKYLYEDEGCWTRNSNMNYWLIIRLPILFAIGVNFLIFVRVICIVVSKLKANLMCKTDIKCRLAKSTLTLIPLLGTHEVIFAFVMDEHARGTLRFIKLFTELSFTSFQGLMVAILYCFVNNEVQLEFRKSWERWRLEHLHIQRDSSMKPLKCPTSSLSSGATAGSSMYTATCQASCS

For `CC[C@H](C)[C@H](NC(=O)[C@H](Cc1ccccc1)NC(=O)[C@H](CCCCNC(=O)[C@@H](N)CCCCNC(=O)COCCOCCNC(=O)COCCOCCNC(=O)CC[C@H](NC(=O)CCCCCCCCCCCCCCCCC(=O)O)C(=O)O)NC(=O)[C@H](CCCNC(=N)N)NC(=O)[C@H](C)NC(=O)[C@H](C)NC(=O)[C@H](CCC(N)=O)NC(=O)[C@H](CCC(=O)O)NC(=O)[C@H](CCC(=O)O)NC(=O)[C@H](CC(C)C)NC(=O)[C@H](Cc1ccc(O)cc1)NC(=O)[C@H](CCCCNC(=O)[C@@H](N)CCCCNC(=O)COCCOCCNC(=O)COCCOCCNC(=O)CC[C@H](NC(=O)CCCCCCCCCCCCCCCCC(=O)O)C(=O)O)NC(=O)[C@H](CO)NC(=O)[C@@H](NC(=O)[C@H](CC(=O)O)NC(=O)[C@H](CO)NC(=O)[C@@H](NC(=O)[C@H](Cc1ccccc1)NC(=O)[C@@H](NC(=O)CNC(=O)[C@H](CCC(=O)O)NC(=O)C(C)(C)NC(=O)[C@@H](N)Cc1c[nH]cn1)[C@@H](C)O)[C@@H](C)O)C(C)C)C(=O)N[C@@H](C)C(=O)N[C@@H](Cc1c[nH]c2ccccc12)C(=O)N[C@@H](CC(C)C)C(=O)N[C@H](C(=O)N[C@@H](CCCNC(=N)N)C(=O)NCC(=O)N[C@@H](CCCNC(=N)N)C(=O)N[C@@H](CCCCNC(=O)[C@@H](N)CCCCNC(=O)COCCOCCNC(=O)COCCOCCNC(=O)CC[C@H](NC(=O)CCCCCCCCCCCCCCCCC(=O)O)C(=O)O)C(=O)O)C(C)C` [Example 6] (H-H[Aib]EGTFTSDVSK([εLys-AEEA-AEEA-γGlu-C18 diacid])YLEEQAARK([εLys-AEEA-AEEA-γGlu-C18 diacid])FIAWLVRGRK([εLys-AEEA-AEEA-γGlu-C18 diacid])-OH; N-terminus and C-terminus assumed), the Low HSA IC50 (human GLP-1 receptor [1]; Low HSA IC50, low serum albumin (max. 0.001% final assay concentration)) was 0.4 nM, the IC50 (human GLP-1 receptor [1]) was over 1000 nM and the half-life (in vivo) was 103 h.

`CC[C@H](C)[C@H](NC(=O)[C@H](Cc1ccccc1)NC(=O)[C@H](CCCCNC(=O)COCCOCCNC(=O)COCCOCCNC(=O)CC[C@H](NC(=O)CCCCCCCCCCCCCCCCC(=O)O)C(=O)O)NC(=O)[C@H](CCCNC(=N)N)NC(=O)[C@H](C)NC(=O)[C@H](C)NC(=O)[C@H](CCC(N)=O)NC(=O)[C@H](CCC(=O)O)NC(=O)[C@H](CCC(=O)O)NC(=O)[C@H](CC(C)C)NC(=O)[C@H](Cc1ccc(O)cc1)NC(=O)[C@H](CO)NC(=O)[C@H](CO)NC(=O)[C@@H](NC(=O)[C@H](CC(=O)O)NC(=O)[C@H](CO)NC(=O)[C@@H](NC(=O)[C@H](Cc1ccccc1)NC(=O)[C@@H](NC(=O)CNC(=O)[C@H](CCC(=O)O)NC(=O)C(C)(C)NC(=O)[C@@H](N)Cc1c[nH]cn1)[C@@H](C)O)[C@@H](C)O)C(C)C)C(=O)N[C@@H](CCCCNC(=O)COCCOCCNC(=O)COCCOCCNC(=O)CC[C@H](NC(=O)CCCCCCCCCCCCCCCCC(=O)O)C(=O)O)C(=O)N[C@@H](Cc1c[nH]c2ccccc12)C(=O)N[C@@H](CC(C)C)C(=O)N[C@H](C(=O)N[C@@H](CCCNC(=N)N)C(=O)NCC(=O)N[C@@H](CCCNC(=N)N)C(=O)N[C@@H](CCCCNC(=O)COCCOCCNC(=O)COCCOCCNC(=O)CC[C@H](NC(=O)CCCCCCCCCCCCCCCCC(=O)O)C(=O)O)C(=O)O)C(C)C` [Example 10] (H-H[Aib]EGTFTSDVSSYLEEQAARK([AEEA-AEEA-γGlu-C18 diacid])FIK([AEEA-AEEA-γGlu-C18 diacid])WLVRGRK([AEEA-AEEA-γGlu-C18 diacid])-OH; N-terminus and C-terminus assumed) showed an EC50 (human GLP-1 receptor [2]) of 0.026 nM and a half-life (in vivo) of 158 h.

Work on `CC[C@H](C)[C@H](NC(=O)[C@H](Cc1ccccc1)NC(=O)[C@H](CCC(=O)O)NC(=O)[C@H](CCCCNC(=O)[C@@H](N)CCCCNC(=O)COCCOCCNC(=O)COCCOCCNC(=O)CC[C@H](NC(=O)CCCCCCCCCCCCCCCCC(=O)O)C(=O)O)NC(=O)[C@H](C)NC(=O)[C@H](C)NC(=O)[C@H](CCC(N)=O)NC(=O)[C@H](CCC(=O)O)NC(=O)[C@H](CCC(=O)O)NC(=O)[C@H](CC(C)C)NC(=O)[C@H](Cc1ccc(O)cc1)NC(=O)[C@H](CO)NC(=O)[C@H](CO)NC(=O)[C@@H](NC(=O)[C@H](CC(=O)O)NC(=O)[C@H](CO)NC(=O)[C@@H](NC(=O)[C@H](Cc1ccccc1)NC(=O)[C@@H](NC(=O)CNC(=O)[C@H](CCC(=O)O)NC(=O)C(C)(C)NC(=O)[C@@H](N)Cc1c[nH]cn1)[C@@H](C)O)[C@@H](C)O)C(C)C)C(=O)N[C@@H](CCCCNC(=O)[C@@H](N)CCCCNC(=O)COCCOCCNC(=O)COCCOCCNC(=O)CC[C@H](NC(=O)CCCCCCCCCCCCCCCCC(=O)O)C(=O)O)C(=O)N[C@@H](Cc1c[nH]c2ccccc12)C(=O)N[C@@H](CC(C)C)C(=O)N[C@H](C(=O)N[C@@H](CCCNC(=N)N)C(=O)NCC(=O)N[C@@H](CCCNC(=N)N)C(=O)N[C@@H](CCCCNC(=O)[C@@H](N)CCCCNC(=O)COCCOCCNC(=O)COCCOCCNC(=O)CC[C@H](NC(=O)CCCCCCCCCCCCCCCCC(=O)O)C(=O)O)C(=O)O)C(C)C` [Example 11] (H-H[Aib]EGTFTSDVSSYLEEQAAK([εLys-AEEA-AEEA-γGlu-C18 diacid])EFIK([εLys-AEEA-AEEA-γGlu-C18 diacid])WLVRGRK([εLys-AEEA-AEEA-γGlu-C18 diacid])-OH; N-terminus and C-terminus assumed) yielded an IC50 (human GLP-1 receptor [1]) of over 1000 nM.

Molecule `CC[C@H](C)[C@H](NC(=O)[C@H](Cc1ccccc1)NC(=O)[C@H](CCC(=O)O)NC(=O)[C@H](CCCNC(=N)N)NC(=O)[C@H](C)NC(=O)[C@H](C)NC(=O)[C@H](CCC(N)=O)NC(=O)[C@H](CCCCNC(=O)COCCOCCNC(=O)COCCOCCNC(=O)[C@@H](N)CCCCNC(=O)CCCCCCCCCCCCCCCS(=O)(=O)O)NC(=O)[C@H](CCC(=O)O)NC(=O)[C@H](CC(C)C)NC(=O)[C@H](Cc1ccc(O)cc1)NC(=O)[C@H](CCCCNC(=O)COCCOCCNC(=O)COCCOCCNC(=O)[C@@H](N)CCCCNC(=O)CCCCCCCCCCCCCCCS(=O)(=O)O)NC(=O)[C@H](CO)NC(=O)[C@@H](NC(=O)[C@H](CC(=O)O)NC(=O)[C@H](CO)NC(=O)[C@@H](NC(=O)[C@H](Cc1ccccc1)NC(=O)[C@@H](NC(=O)CNC(=O)[C@H](CCC(=O)O)NC(=O)C(C)(C)NC(=O)[C@@H](N)Cc1c[nH]cn1)[C@@H](C)O)[C@@H](C)O)C(C)C)C(=O)N[C@@H](CCCCNC(=O)COCCOCCNC(=O)COCCOCCNC(=O)[C@@H](N)CCCCNC(=O)CCCCCCCCCCCCCCCS(=O)(=O)O)C(=O)N[C@@H](Cc1c[nH]c2ccccc12)C(=O)N[C@@H](CC(C)C)C(=O)N[C@H](C(=O)N[C@@H](CCCNC(=N)N)C(=O)NCC(=O)N[C@@H](CCCNC(=N)N)C(=O)NCC(=O)O)C(C)C` [Example 13] has an EC50 (human GLP-1 receptor [2]) of 0.026 nM.

With `CC[C@H](C)[C@H](NC(=O)[C@H](Cc1ccccc1)NC(=O)[C@H](CCC(=O)O)NC(=O)[C@H](CCCNC(=N)N)NC(=O)[C@H](C)NC(=O)[C@H](C)NC(=O)[C@H](CCC(N)=O)NC(=O)[C@H](CCCCNC(=O)COCCOCCNC(=O)COCCOCCNC(=O)COCCOCCNC(=O)COCCOCCNC(=O)COCCOCCNC(=O)[C@@H](N)CCCCNC(=O)[C@@H](N)CCCCNC(=O)[C@@H](N)CCCCNC(=O)CCCCCCCCCCCCCCCCC(=O)O)NC(=O)[C@H](CCC(=O)O)NC(=O)[C@H](CC(C)C)NC(=O)[C@H](Cc1ccc(O)cc1)NC(=O)[C@H](CCCCNC(=O)COCCOCCNC(=O)COCCOCCNC(=O)COCCOCCNC(=O)COCCOCCNC(=O)COCCOCCNC(=O)[C@@H](N)CCCCNC(=O)[C@@H](N)CCCCNC(=O)[C@@H](N)CCCCNC(=O)CCCCCCCCCCCCCCCCC(=O)O)NC(=O)[C@H](CO)NC(=O)[C@@H](NC(=O)[C@H](CC(=O)O)NC(=O)[C@H](CO)NC(=O)[C@@H](NC(=O)[C@H](Cc1ccccc1)NC(=O)[C@@H](NC(=O)CNC(=O)[C@H](CCC(=O)O)NC(=O)C(C)(C)NC(=O)[C@@H](N)Cc1c[nH]cn1)[C@@H](C)O)[C@@H](C)O)C(C)C)C(=O)N[C@@H](CCCCNC(=O)COCCOCCNC(=O)COCCOCCNC(=O)COCCOCCNC(=O)COCCOCCNC(=O)COCCOCCNC(=O)[C@@H](N)CCCCNC(=O)[C@@H](N)CCCCNC(=O)[C@@H](N)CCCCNC(=O)CCCCCCCCCCCCCCCCC(=O)O)C(=O)N[C@@H](Cc1c[nH]c2ccccc12)C(=O)N[C@@H](CC(C)C)C(=O)N[C@H](C(=O)N[C@@H](CCCNC(=N)N)C(=O)NCC(=O)N[C@@H](CCCNC(=N)N)C(=O)NCC(=O)O)C(C)C` [Example 17] the EC50 (human GLP-1 receptor [2]) was 0.018 nM and the half-life (in vivo) was 143 h.

In the case of `CC[C@H](C)[C@H](NC(=O)[C@H](Cc1ccccc1)NC(=O)[C@H](CCC(=O)O)NC(=O)[C@H](CCCNC(=N)N)NC(=O)[C@H](C)NC(=O)[C@H](C)NC(=O)[C@H](CCC(N)=O)NC(=O)[C@H](CCCCNC(=O)COCCOCCNC(=O)COCCOCCNC(=O)COCCOCCNC(=O)COCCOCCNC(=O)COCCOCCNC(=O)[C@@H](N)CCCCNC(=O)[C@@H](N)CCCCNC(=O)CCCCCNC(=O)CCCCCCCCCCCCCCCS(=O)(=O)O)NC(=O)[C@H](CCC(=O)O)NC(=O)[C@H](CC(C)C)NC(=O)[C@H](Cc1ccc(O)cc1)NC(=O)[C@H](CCCCNC(=O)COCCOCCNC(=O)COCCOCCNC(=O)COCCOCCNC(=O)COCCOCCNC(=O)COCCOCCNC(=O)[C@@H](N)CCCCNC(=O)[C@@H](N)CCCCNC(=O)CCCCCNC(=O)CCCCCCCCCCCCCCCS(=O)(=O)O)NC(=O)[C@H](CO)NC(=O)[C@@H](NC(=O)[C@H](CC(=O)O)NC(=O)[C@H](CO)NC(=O)[C@@H](NC(=O)[C@H](Cc1ccccc1)NC(=O)[C@@H](NC(=O)CNC(=O)[C@H](CCC(=O)O)NC(=O)C(C)(C)NC(=O)[C@@H](N)Cc1c[nH]cn1)[C@@H](C)O)[C@@H](C)O)C(C)C)C(=O)N[C@@H](CCCCNC(=O)COCCOCCNC(=O)COCCOCCNC(=O)COCCOCCNC(=O)COCCOCCNC(=O)COCCOCCNC(=O)[C@@H](N)CCCCNC(=O)[C@@H](N)CCCCNC(=O)CCCCCNC(=O)CCCCCCCCCCCCCCCS(=O)(=O)O)C(=O)N[C@@H](Cc1c[nH]c2ccccc12)C(=O)N[C@@H](CC(C)C)C(=O)N[C@H](C(=O)N[C@@H](CCCNC(=N)N)C(=O)NCC(=O)N[C@@H](CCCNC(=N)N)C(=O)NCC(=O)O)C(C)C` [Example 20], the IC50 (human GLP-1 receptor [1]) is reported as 100 nM.
